In patent US12195447B2, “Azolopyrimidine for the treatment of cancer-related disorders” (ARCUS BIOSCIENCES, INC., priority 2017, dated 2025):

How the values were obtained:
[1] = target: T1, adenosine A2A receptor (A2AR) (Homo sapiens, UniProt P29274); experiment: A2AR/TREx CHO cAMP functional assay (antagonist mode, NECA EC80); assay type: cell-based
T1 construct: expressed in transfected cells
Protocol: Functional assays may also be employed to assess the compounds of the present invention. The cAMP assay described in detail below was used to evaluate certain compounds described herein.
Measurement of the Adenosine Receptor Activity of Compound I Using a A2AR/TREx CHO cAMP Functional Assay
Dose response of NECA (5-N-ethylcarboxamidoadenosine), a non-selective adenosine receptor agonist, was performed daily to determine the EC80 of NECA used in the cAMP functional assay. 1000-2500 cells/well of stably expressed A2AR TRex CHO cells were seeded to the 384-well Opti plate (Perkin Elmer) followed by incubating NECA at varies concentrations (ranging from 10 μM to 0 μM) at 37° C. for 30 min. […] FRET signal was detected with Envision multilabel plate reader (Perkin Elmer) when Eu-cAMP tracer excitation at 615 nm and emission at 665 nm. […]
The cAMP antagonist functional assay (Perkin Elmer) was performed on A2AR TRex CHO stable cell lines. […] FRET signal was detected when Eu-cAMP tracer excitation at 615 nm and emission at 665 nm. […]
Particular compounds were evaluated for adenosine A2A receptor activity as described for the cAMP assay above. […]

A2BR = target: T2, A2BR (Homo sapiens, UniProt P29275); experiment: Potency on A2BR (no method described); conditions: summary statement
T2 sequence (P29275 1-332): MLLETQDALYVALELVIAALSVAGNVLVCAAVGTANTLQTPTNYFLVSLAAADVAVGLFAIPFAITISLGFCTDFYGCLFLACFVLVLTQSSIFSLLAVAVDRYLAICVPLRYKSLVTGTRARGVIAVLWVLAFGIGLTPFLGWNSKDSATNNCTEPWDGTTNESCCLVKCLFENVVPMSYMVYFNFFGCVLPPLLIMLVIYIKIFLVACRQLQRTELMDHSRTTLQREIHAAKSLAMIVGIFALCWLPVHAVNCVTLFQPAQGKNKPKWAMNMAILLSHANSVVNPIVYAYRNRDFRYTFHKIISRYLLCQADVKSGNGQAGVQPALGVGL

T1 sequence (P29274 whole entry): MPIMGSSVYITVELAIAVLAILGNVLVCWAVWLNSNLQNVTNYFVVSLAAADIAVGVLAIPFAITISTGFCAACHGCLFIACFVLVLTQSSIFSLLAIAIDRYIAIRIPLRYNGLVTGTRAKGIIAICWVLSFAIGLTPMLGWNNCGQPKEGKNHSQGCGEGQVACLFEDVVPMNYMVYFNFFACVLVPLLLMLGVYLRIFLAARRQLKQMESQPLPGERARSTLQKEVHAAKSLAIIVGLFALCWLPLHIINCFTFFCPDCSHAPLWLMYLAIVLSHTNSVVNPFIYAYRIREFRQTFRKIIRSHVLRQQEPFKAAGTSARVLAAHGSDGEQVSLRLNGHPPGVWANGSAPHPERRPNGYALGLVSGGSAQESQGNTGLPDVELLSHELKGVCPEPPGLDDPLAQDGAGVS

Cc1c(C#N)cccc1-c1cc(-c2cn(Cc3cccc(C(C)(C)O)n3)nn2)nc(N)n1 [Compound I, 3-[2-amino-6-(1-{[6-(2-hydroxypropan-2-yl)pyridin-2-yl]methyl}-1H-1,2,3-triazol-4-yl)pyrimidin-4-yl]-2-methylbenzonitrile] was tested, and the Kb [1] was < 10 nM, the “potency on A2AR (antagonist)” value ([1]; summary statement) was “less than 10 nM” and the “potency on A2BR (antagonist)” value (A2BR) was “less than 10 nM”.
